# Values joined by “and” are separate entries in the source; they are usually repeats but may differ in a detail not shown here. Equal entries are not always repeated.
# Target: T1, rat mGluR5 receptor (Rattus norvegicus, UniProt P31424)
# T1 construct: expressed in transfected cells
# Test: mGluR5 assay on HEK-expressing rat mGluR5 (fluorescent cell based Ca2+ mobilization assay)
# Conditions: HEK-293 cells stably expressing rat mGluR5; no co-addition of glutamate; mean of at least three independent experiments in duplicate; read-out: Ca++ Flux (mean EC50)
# Description: Positive functional expression of HEK-293 cells stably expressing rat mGluR5 receptor was determined by measuring intracellular Ca^2+ changes using a Fluorometric Imaging Plate Reader (FLIPR, Molecular Devices, Sunnyvale, Calif.) in response to glutamate or selective known mGluR5 agonists and antagonists. Rat mGluR5 RT-PCR products in HEK-293 cells were sequenced and found 100% identical to rat mGluR5 Genbank reference sequence (NM_017012). HEK-293 cells expressing rmGluR5 were maintained in media containing DMEM, dialyzed Fetal Bovine Serum (10%), Glutamax™ (2 mM), Penicillin (100 units/ml), Streptomycin (100 μg/ml), Geneticin (100 μg/ml) and Hygromycin-B (40 μg/ml) at 37° C./5% CO2.
# After one day of incubation, cells were washed with assay buffer containing: 142 mM NaCl, 6 mM KCl, 1 mM […], 1 mM CaCl2, 20 mM HEPES, 1 g/L glucose, 0.125 mM sulfinpyrazone, pH 7.4. After 60 min of loading with 4 uM Fluo-4 (TefLabs, Austin, Tex.), the cells were washed three times with 50 μl of PBS Buffer and resuspended in 45 μl of assay Buffer. The plates were then transferred to a Fluorometric Imaging Plate Reader (FLIPR, Molecular Devices, Sunnyvale, Calif.) for the assessment of intracellular calcium flux. After monitoring the baseline fluorescence for 10 seconds, increasing concentrations of representative compound (from 0.01 to 60 μM) of the present invention diluted in Assay Buffer (15 μl of 4× dilutions) was added to the cell. The final DMSO concentration in the assay was 0.3%. In each experiment, fluorescence was then monitored as a function of time for 3 minutes and the data analyzed using Microsoft Excel and GraphPad Prism. Each data point was also measured two times.
# Under these experimental conditions, this HEK-rat mGluR5 cell line is able to directly detect positive allosteric modulators without the need of co-addition of glutamate or mGluR5 agonist.
# The concentration-response curves of representative compounds of the present invention were generated using the Prism GraphPad software (Graph Pad Inc, San Diego, USA). The curves were fitted to a four-parameter logistic equation:
# (Y=Bottom+(Top−Bottom)/(1+10̂((LogEC50−X)*Hill Slope)
# allowing determination of EC50 values.
# The Table 1 below represents the mean EC50 obtained from at least three independent experiments of selected molecules performed in duplicate.
# T1 sequence (P31424 21-1171 isoform P31424-2 limits assumed): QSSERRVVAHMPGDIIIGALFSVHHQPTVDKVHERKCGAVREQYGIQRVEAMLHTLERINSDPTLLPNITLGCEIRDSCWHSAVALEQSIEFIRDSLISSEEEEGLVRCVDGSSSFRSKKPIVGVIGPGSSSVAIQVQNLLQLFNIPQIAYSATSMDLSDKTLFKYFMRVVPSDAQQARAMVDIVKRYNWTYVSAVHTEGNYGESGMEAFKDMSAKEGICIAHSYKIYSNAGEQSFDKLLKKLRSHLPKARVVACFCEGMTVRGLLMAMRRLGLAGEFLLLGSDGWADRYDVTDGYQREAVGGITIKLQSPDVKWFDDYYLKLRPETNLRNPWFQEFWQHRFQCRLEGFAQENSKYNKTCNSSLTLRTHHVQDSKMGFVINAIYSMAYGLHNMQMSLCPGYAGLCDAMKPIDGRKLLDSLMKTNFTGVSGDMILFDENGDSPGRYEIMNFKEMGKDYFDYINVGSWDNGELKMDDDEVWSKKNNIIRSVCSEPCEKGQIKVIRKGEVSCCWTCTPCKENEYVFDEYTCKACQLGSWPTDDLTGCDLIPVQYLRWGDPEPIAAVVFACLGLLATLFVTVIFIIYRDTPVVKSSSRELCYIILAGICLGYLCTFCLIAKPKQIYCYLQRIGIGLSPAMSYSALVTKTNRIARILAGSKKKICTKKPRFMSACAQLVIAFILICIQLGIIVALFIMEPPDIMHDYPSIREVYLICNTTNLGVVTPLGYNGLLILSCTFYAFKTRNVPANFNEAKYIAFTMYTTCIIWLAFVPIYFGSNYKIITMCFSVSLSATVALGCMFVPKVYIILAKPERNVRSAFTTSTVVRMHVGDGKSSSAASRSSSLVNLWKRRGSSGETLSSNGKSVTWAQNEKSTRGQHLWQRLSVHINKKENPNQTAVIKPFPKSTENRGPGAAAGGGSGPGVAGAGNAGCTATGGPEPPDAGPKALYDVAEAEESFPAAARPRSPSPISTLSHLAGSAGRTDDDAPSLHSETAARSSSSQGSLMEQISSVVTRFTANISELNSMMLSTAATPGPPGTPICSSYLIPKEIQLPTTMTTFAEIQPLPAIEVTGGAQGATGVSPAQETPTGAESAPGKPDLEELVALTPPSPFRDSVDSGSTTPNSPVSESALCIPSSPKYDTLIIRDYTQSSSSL
row,Compound,EC50
1,"O=C(c1ccc(F)cc1)N1CCC[C@H](c2noc(-c3nc(C(F)(F)F)c[nH]3)n2)C1 [Example 55, (4-Fluoro-phenyl)-{(S)-3-[5-(4-trifluoromethyl-1H-imidazol-2-yl)-[1,2,4]oxadiazol-3-yl]-piperidin-1-yl}-methanone]",1000 to 10000 nM
2,"Cc1c[nH]c(-c2nc([C@H]3CCCN(C(=O)c4ccc(F)nc4)C3)no2)c1 [Example 28, (6-Fluoro-pyridin-3-yl)-{(S)-3-[5-(4-methyl-1H-pyrrol-2-yl)-[1,2,4]oxadiazol-3-yl]-piperidin-1-yl}-methanone]",< 1000 nM
3,"Cc1c[nH]c(-c2noc([C@H]3CCCN(C(=O)c4cnoc4C)C3)n2)c1 [Example 35, (5-Methyl-isoxazol-4-yl)-{(S)-3-[3-(4-methyl-1H-pyrrol-2-yl)-[1,2,4]oxadiazol-5-yl]-piperidin-1-yl}-methanone]",< 1000 nM
4,"O=C(c1ccc(F)nc1)N1CCC[C@H](c2noc(-c3cc(Cl)c[nH]3)n2)C1 [Example 40, {(S)-3-[5-(4-Chloro-1H-pyrrol-2-yl)-[1,2,4]oxadiazol-3-yl]-piperidin-1-yl}-(6-fluoro-pyridin-3-yl)-methanone]",< 1000 nM
5,"O=C(c1ccc(F)cc1)N1CCC[C@H](c2nc(-c3cc(Cl)c[nH]3)no2)C1 [Example 43, {(S)-3-[3-(4-Chloro-1H-pyrrol-2-yl)-[1,2,4]oxadiazol-5-yl]-piperidin-1-yl}-(4-fluoro-phenyl)-methanone]",< 1000 nM
6,"O=C(c1ccncc1F)N1CCC[C@H](c2nc(-c3cc(Br)c[nH]3)no2)C1 [Example 69, {(S)-3-[3-(4-Bromo-1h-pyrrol-2-yl)-[1,2,4]oxadiazol-5-yl]-piperidin-1-yl}-(3-fluoro-pyridin-4-yl)-methanone]",1000 to 10000 nM
7,"Cc1c[nH]c(-c2noc([C@H]3CCCN(C(=O)c4ccncc4F)C3)n2)c1 [Example 71, (3-Fluoro-pyridin-4-yl)-{(S)-3-[3-(4-methyl-1H-pyrrol-2-yl)-[1,2,4]oxadiazol-5-Yl]-piperidin-1-yl}-methanone]",1000 to 10000 nM
8,"O=C(c1ccncc1F)N1CCC[C@H](c2nc(-c3cc(Cl)c[nH]3)no2)C1 [Example 67, {(S)-3-[3-(4-Chloro-1H-pyrrol-2-yl)-[1,2,4]oxadiazol-5-yl]-piperidin-1-yl}-(3-fluoro-pyridin-4-yl)-methanone]",1000 to 10000 nM
9,"O=C(c1ccc(F)nc1)N1CCC[C@H](c2nc(-c3cc(Cl)c[nH]3)no2)C1 [Example 65, {(S)-3-[3-(4-Chloro-1H-pyrrol-2-yl)-[1,2,4]oxadiazol-5-yl]-piperidin-1-yl}-(6-fluoro-pyridin-3-yl)-methanone]",1000 to 10000 nM
10,"O=C(c1ccc(F)nc1)N1CCC[C@H](c2noc(-c3cc(Br)c[nH]3)n2)C1 [Example 44, {(S)-3-[5-(4-Bromo-1H-pyrrol-2-yl)-[1,2,4]oxadiazol-3-yl]-piperidin-1-yl}-(6-fluoro-pyridin-3-yl)-methanone]",< 1000 nM and > 10000 nM
11,"Cc1c[nH]c(-c2noc([C@H]3CCCN(C(=O)c4ccnc(F)c4)C3)n2)c1 [Example 34, (2-Fluoro-pyridin-4-yl)-{(S)-3-[3-(4-methyl-1H-pyrrol-2-yl)-[1,2,4]oxadiazol-5-yl]-piperidin-1-yl}-methanone]",< 1000 nM
12,"Cc1ccc(-c2nc([C@H]3CCCN(C(=O)c4ccc(F)cc4)C3)no2)[nH]1 [Example 38, (4-Fluoro-phenyl)-{(S)-3-[5-(5-methyl-1H-pyrrol-2-yl)-[1,2,4]oxadiazol-3-yl]-piperidin-1-yl}-methanone]",1000 to 10000 nM
13,"O=C(c1ccc(F)nc1)N1CCC[C@H](c2nc(-c3cc(Br)c[nH]3)no2)C1 [Example 46, {(S)-3-[3-(4-Bromo-1H-pyrrol-2-yl)-[1,2,4]oxadiazol-5-yl]-piperidin-1-yl}-(6-fluoro-pyridin-3-yl)-methanone]",< 1000 nM
14,"O=C(c1ccc(F)c(F)c1)N1CCC[C@H](c2nc(-c3ccc[nH]3)no2)C1 [Example 3, (3,4-Difluoro-phenyl)-{(S)-3-[3-(1H-pyrrol-2-yl)-[1,2,4]oxadiazol-5-yl]-piperidin-1-yl}-methanone]",< 1000 nM
15,"O=C(c1ccc(F)nc1)N1CCC[C@H](c2nc(-c3cc(F)c[nH]3)no2)C1 [Example 52, (6-Fluoro-pyridin-3-yl)-{(S)-3-[3-(4-fluoro-1H-pyrrol-2-yl)-[1,2,4]oxadiazol-5-yl]-piperidin-1-yl}-methanone]",< 1000 nM
16,"O=C(c1ccc(F)c(F)c1)N1CCCC(c2noc(-c3ccn[nH]3)n2)C1 (stereo not drawn) [Example 14, (3,4-Difluoro-phenyl)-{3-[5-(2H-pyrazol-3-yl)-[1,2,4]oxadiazol-3-yl]-piperidin-1-yl}-methanone]",> 10000 nM
17,"O=C(c1ccc(F)nc1)N1CCC[C@H](c2noc(-c3cc(F)c[nH]3)n2)C1 [Example 64, (6-Fluoro-pyridin-3-yl)-{(S)-3-[5-(4-fluoro-1H-pyrrol-2-yl)-[1,2,4]oxadiazol-3-yl]-piperidin-1-yl}-methanone]",1000 to 10000 nM
18,"O=C(c1ccc(F)cc1)N1CCCC(c2noc(-c3ccn[nH]3)n2)C1 (stereo not drawn) [Example 13, (4-Fluoro-phenyl)-{3-[5-(2H-pyrazol-3-yl)-[1,2,4]oxadiazol-3-yl]-piperidin-1-yl}-methanone]",> 10000 nM
19,"O=C(c1ccncc1F)N1CCC[C@H](c2nc(-c3cc(F)c[nH]3)no2)C1 [Example 70, (3-Fluoro-pyridin-4-yl)-{(S)-3-[3-(4-fluoro-1H-pyrrol-2-yl)-[1,2,4]oxadiazol-5-yl]-piperidin-1-yl}-methanone]",1000 to 10000 nM
20,"Cc1c[nH]c(-c2nc([C@H]3CCCN(C(=O)c4ccncc4F)C3)no2)c1 [Example 58, (3-Fluoro-pyridin-4-yl)-{(S)-3-[5-(4-methyl-1H-pyrrol-2-yl)-[1,2,4]oxadiazol-3-yl]-piperidin-1-yl}-methanone]",< 1000 nM
21,"O=C(c1ccnc(F)c1)N1CCC[C@H](c2nc(-c3cc(Cl)c[nH]3)no2)C1 [Example 66, {(S)-3-[3-(4-Chloro-1H-pyrrol-2-yl)-[1,2,4]oxadiazol-5-yl]-piperidin-1-yl}-(2-fluoro-pyridin-4-yl)-methanone]",1000 to 10000 nM
22,"O=C(c1ccncc1F)N1CCC[C@H](c2noc(-c3cc(C(F)(F)F)c[nH]3)n2)C1 [Example 77, (3-Fluoro-pyridin-4-yl)-{(S)-3-[5-(4-trifluoromethyl-1H-pyrrol-2-yl)[1,2,4]oxadiazol-3-yl]-piperidin-1-yl}-methanone]",1000 to 10000 nM
23,"Cc1oncc1C(=O)N1CCC[C@H](c2noc(-c3cc(Cl)c[nH]3)n2)C1 [Example 42, {(S)-3-[5-(4-Chloro-1H-pyrrol-2-yl)-[1,2,4]oxadiazol-3-yl]-piperidin-1-yl}-(5-methyl-isoxazol-4-yl)-methanone]",< 1000 nM
24,"O=C(c1ccnc(F)c1)N1CCC[C@H](c2noc(-c3cc(F)c[nH]3)n2)C1 [Example 60, (2-Fluoro-pyridin-4-yl)-{(s)-3-[5-(4-fluoro-1H-pyrrol-2-yl)-[1,2,4]oxadiazol-3-yl]-piperidin-1-yl}-methanone]",< 1000 nM
25,"CC1(C)CC(c2nc(-c3ccc[nH]3)no2)CN(C(=O)c2ccc(F)cc2)C1 (stereo not drawn) [Example 49, {3,3-Dimethyl-5-[3-(1H-pyrrol-2-yl)-[1,2,4]oxadiazol-5-yl]-piperidin-1-yl}-(4-fluoro-phenyl)-methanone]",1000 to 10000 nM
26,"O=C(c1ccc(F)cc1)N1CCC[C@H](n2nnc(-c3ccc[nH]3)n2)C1 [Example 54, (4-Fluoro-phenyl)-{(S)-3-[5-(1H-pyrrol-2-yl)-tetrazol-2-yl]-piperidin-1-yl}-methanone]",< 1000 nM
27,"O=C(c1ccc(F)cc1)N1CCC[C@H](c2nc(-c3cc4ccccc4[nH]3)no2)C1 [Example 16, (4-Fluoro-phenyl)-{(S)-3-[3-(1H-indol-2-yl)-[1,2,4]oxadiazol-5-yl]-piperidin-1-yl}-methanone]",1000 to 10000 nM
28,"O=C(c1ccc(F)cc1)N1CCC[C@H](c2nc(-c3cc(Br)c[nH]3)no2)C1 [Example 45, {(S)-3-[3-(4-Bromo-1H-pyrrol-2-yl)-[1,2,4]oxadiazol-5-yl]-piperidin-1-yl}-(4-fluoro-phenyl)-methanone]",< 1000 nM
29,"O=C(c1ccc(F)cc1)N1CCC(c2nc(-c3ccc[nH]3)no2)C1 (stereo not drawn) [Example 57, (4-Fluoro-phenyl)-{3-[3-(1H-pyrrol-2-yl)-[1,2,4]oxadiazol-5-yl]-pyrrolidin-1-yl}-methanone]",1000 to 10000 nM
30,"O=C(c1ccnc(F)c1)N1CCC[C@H](c2nc(-c3cc(F)c[nH]3)no2)C1 [Example 53, (2-Fluoro-pyridin-4-yl)-{(S)-3-[3-(4-fluoro-1H-pyrrol-2-yl)-[1,2,4]oxadiazol-5-yl]-piperidin-1-yl}-methanone]",< 1000 nM

# — patent publication US20090203737A1, “Pyrrole Derivatives as Positive Allosteric Modulators of Metabotropic Receptors” (priority 2005, published 2009)
